The record followed here is publication PMC11066877, “Development and Characterization of Novel FAP-Targeted Theranostic Pairs: A Bench-to-Bedside Study” (Research, 2023).

Data set [1] in a line: Stability of 177Lu-labeled radiopharmaceuticals in FBS and PBS. In kind it is in vitro ADME. The following applies: 50% FBS and 50% PBS, checked at 2 h and 24 h. How it is done: To perform ^68Ga-labeling, approximately 20 nmol of FD1, FD2, or FD3 was dissolved in 20 μl of dimethyl sulfoxide and 230 μl of sterile deionized water. This mixture was added to 400 μl of ^68GaCl3 solution (containing 37 MBq) in 0.1 M HCl, with pH adjusted to 4.0 using 0.1 M NH4OAC. The mixture was incubated at 100 °C for 10 min without any additional purification steps. For ^177Lu-labeling, high-purity radionuclide ^177LuCl3 in 0.04 M HCl (3.9 GBq in 97 μl) was purchased from ITM (Munich, Germany). ^177LuCl3 solution (555 MBq in 0.04 M HCl) was added to 500 μl of 1M NH4OAC (pH = 5), followed by the addition of 375 nmol of FD1, FD2, or FD3. The solution was shaken at a temperature of 100 °C for a duration of 30 min. Instant thin-layer chromatography (iTLC; Eckert & Ziegler Radiopharma Inc.) was used to evaluate the RCP of the final products. For iTLC, the mobile phase consisted of 1 M NH4OAC and methyl alcohol in a ratio of 1:1. The final solution must be adjusted to pH 7.0 before being injected into the experimental mice via the tail vein. The stability of ^177Lu-labeled radiopharmaceuticals was evaluated in a mixture of 50% FBS and 50% PBS at 2 h and 24 h after preparation. In the process of preparing each [^68Ga]Ga-DOTA-FD1 for clinical imaging, the end product underwent sterilization by passing it through a 0.22-μm Millipore filter.

A further data set deals with HT1080-FAP tumor. Nature of the data set: FAP-targeted radioligand therapy in HT1080-FAP tumor models. In kind it is in vivo, mice. On the procedure:
HT1080-FAP tumor models with higher levels of FAP expression were utilized in this study. Tumor-bearing mice were subjected to therapy experiments when the tumor volume reached 50 to 180 mm^3. Tumor models with different tumor volumes were injected with different therapeutic doses. Mice bearing HT1080-FAP tumors of slightly larger tumor volumes were randomly assigned into 4 groups (n = 5 per group): control group and treatment groups with 800 μCi of [^177Lu]Lu-DOTA-FD1, 400 μCi of [^177Lu]Lu-DOTA-FD3, and 600 μCi [^177Lu]Lu-DOTA-FD3. Mice bearing HT1080-FAP tumors of slightly smaller tumor volumes were also divided into 4 groups (n = 6 per group): control group and treatment groups with 200 μCi of [^177Lu]Lu-DOTA-FD1, 200 μCi of [^177Lu]Lu-DOTA-FD2, and 200 μCi of [^177Lu]Lu-DOTA-FD3. Tumor volume and mice body weight were examined daily after a single-dose injection. Weight monitoring is expressed as a percentage of initial weight on the measurement day. Tumor volume was measured as half of the length × width squared times. Mice were euthanized when the tumor volume exceeded 1,500 mm^3, the tumor ruptured, or when it lost more than 20% of its body weight. T3M-4 tumor models with abundant stroma were established to validate the therapeutic efficacy of [^177Lu]Lu-DOTA-FD3. When the tumor volume grew to 100 to 150 mm^3, the mice were randomly divided into 2 groups (n = 7 per group): free ^177Lu treatment group and 500 μCi [^177Lu]Lu-DOTA-FD3 treatment group. Tumor volume and mice body weight were examined every 2 days.

The nature of data set [2]: Ex vivo biodistribution of 177Lu-labeled radioligands in tumor-free nude mice. The conditions noted are these: mouse, intravenous, 1.11 MBq, total radioactivity. The text has this:
After imaging collection and image reconstruction, samples from euthanized experimental mice, including blood and multiple significant organs, were harvested and weighed. The radioactivity in each collected tissue was counted using an automated gamma counter (Wizard 2480, PerkinElmer) and the accumulation of radioactivity in different tissues and organs was quantified and expressed as %ID/g (mean ± SD). [^177Lu]Lu-DOTA-FD1 (~1.11 MBq, n = 3), [^177Lu]Lu-DOTA-FD2 (~1.11 MBq, n = 3), and [^177Lu]Lu-DOTA-FD3 (~1.11 MBq, n = 3) were injected into the tail vein of free nude mice at 6 h, 24 h, and 24 h for ex vivo biodistribution to verify the circulation time of the 3 probes in vivo. Biodistribution data from tumor-bearing mice injected with [^177Lu]Lu-DOTA-FD3 at 45 h (~1.11 MBq, n = 4) and 90 h (~1.11 MBq, n = 3) validated the prolonged enrichment of the probe at the tumor site. At the end of each probe imaging and radioactivity counting study, tumor tissues were fixed in paraformaldehyde tissue fixative. Briefly, sections of 10 μm were cut and stained for H&E following the standard protocols. IHC staining with a FAP antibody (ab227703, Abcam) was performed only on tumor tissues following accepted techniques.

A short description of data set [3]: microPET/CT imaging, ROI analysis, HT-1080 tumor models. It is filed as in vivo, mice. The conditions noted are these: nude (thymus-free), mouse, intravenous, 3 MBq, 4 h p.i. On the procedure: (§1) A human pancreatic cancer cell line BxPC-3 and a murine pancreatic cancer cell Panc-02 were obtained from the American Type Culture Collection. The pancreatic cancer cell line T3M-4 was purchased by MeisenCTCC (Zhejiang, China). BxPC-3 and T3M-4 cell lines were grown in RPMI 1640 medium (Shanghai BasalMedia Technologies Co., LTD.) containing 10% FBS (GE Healthcare, Chicago, IL, USA) and 1% penicillin–streptomycin solution (Invitrogen). To culture the Panc-02 cell line, a medium called Dulbecco’s modified Eagle medium from Shanghai BasalMedia Technologies Co., LTD. was used, which consisted of 10% FBS. The cell line HT-1080 was grown in MEM medium (Shanghai BasalMedia Technologies Co., LTD.) supplemented with 10% FBS, 1% penicillin-streptomycin solution, and 1% nonessential amino acids (NEAA-11140050; Gibco). A human fibrosarcoma cell line was stably transfected with FAP (HT1080-FAP) and cultured, as we previously described. All cell lines were cultured in a humid incubator with 5% CO2 at a temperature of 37 °C. Approval was granted by the Institutional Animal Care and Use Committee (Renji Hospital, School of Medicine, Shanghai Jiao Tong University) for all experimental protocols and procedures related to animal care. Panc-02 cells were implanted by subcutaneous injection of 5 × 10^6 tumor cells suspended in 100 μl PBS and matrigel matrix (Corning) with equal volume into the upper limb flank of C57BL/6 mice (Shanghai Sheng Chang Biotechnology Co., Ltd.). Four- to 6-week-old thymus-free nude mice (GemPharmatech) were subcutaneously inoculated with BxPC-3, T3M-4, HT-1080, and HT1080-FAP cells (5 × 10^6 in 100 μl of PBS mixing with 100 μl matrigel matrix) in the right shoulder. […]
(§2) MicroPET imaging was performed on isoflurane-anesthetized mice injected intravenously via the lateral tail vein with around 3 MBq (2.5 nmol) of the radioligand at certain times. […] The information was analyzed using OsiriX Lite software (Pixmeo SARL) and Inveon Research Workplace (Siemens Preclinical Solutions). […]

Data set [4] can be described thus: microPET/CT imaging, ROI analysis, BxPC-3 tumor models. It is filed as in vivo, mice. The conditions noted are these: nude (thymus-free), mouse, intravenous, 3 MBq, 4 h p.i. How it is done:
as §1, §2

Data set [5] can be described thus: microPET/CT imaging, ROI analysis, Panc-02 tumor models. It is filed as in vivo, mice. The conditions noted are these: C57BL/6, mouse, intravenous, 3 MBq, 4 h p.i. On the procedure:
as §1, §2

In the case of `CCCCCC(=O)N[C@H]1CSCc2cc(CSCCNC(=O)[C@H](CCCCNC(=O)CCCc3ccc(I)cc3)NC(=O)CN3CCN(CC(=O)O)CCN(CC(=O)O)CCN(CC(=O)O)CC3)cc(c2)CSC[C@@H](C(=O)O)NC(=O)[C@H](Cc2ccccc2)NC(=O)[C@H](CCC(N)=O)NC(=O)[C@H]([C@@H](C)O)NC(=O)[C@@H]2CCCN2C(=O)[C@@H]2CCCN2C1=O` [[^177Lu]Lu-DOTA-FD2, metal not drawn], in data set [1], the “stable in FBS and PBS, no significant demetallation” value is listed as “at least 24 h”. Further, the “tumor growth at the end of the study” value in the data set on HT1080-FAP tumor (average tumor volume 50 mm^3 at onset, single dose 200 μCi) is “substantially inhibited the tumor growth”. In the data set with HT1080-FAP tumor (average tumor volume 50 mm^3 at onset, single dose 200 μCi, 6 mice per group), the “mice that acquired complete response (CR)” value was 1 of the 6. The tissue uptake at 24 h in data set [2] (blood, 24 h p.i., read-out: accumulation in the blood pool (biodistribution)) came out at 31.8 ± 2.24 %ID/g.

In the case of `CCCCCC(=O)N[C@H]1CSCc2cc(CSCCNC(=O)[C@H](CCCCN)NC(=O)[C@@H](NC(=O)[C@H](CCSC)NC(=O)CN3CCN(CC(=O)O)CCN(CC(=O)O)CCN(CC(=O)O)CC3)C(C)C)cc(c2)CSC[C@@H](C(=O)O)NC(=O)[C@H](Cc2ccccc2)NC(=O)[C@H](CCC(N)=O)NC(=O)[C@H]([C@@H](C)O)NC(=O)[C@@H]2CCCN2C(=O)[C@@H]2CCCN2C1=O` [[^177Lu]Lu-DOTA-FD1, metal not drawn], the “stable in FBS and PBS, no significant demetallation” value in data set [1] is given as “at least 24 h”. The “tumor volume versus control group” value in the data set on HT1080-FAP tumor (average tumor volume 180 mm^3 at onset, single dose 800 μCi) is on record as “no difference in tumor volume”. In data set [2] (kidney, 6 h p.i., read-out: radioactivity uptake in kidneys (biodistribution)), the tissue uptake at 6 h was determined as 30.4 ± 3.1 %ID/g.

Consider `CCCCCC(=O)N[C@H]1CSCc2cc(CSCCNC(=O)[C@H](CCCCNC(=O)CCCc3ccc(I)cc3)NC(=O)[C@@H](NC(=O)[C@H](CCSC)NC(=O)CN3CCN(CC(=O)O)CCN(CC(=O)O)CCN(CC(=O)O)CC3)C(C)C)cc(c2)CSC[C@@H](C(=O)O)NC(=O)[C@H](Cc2ccccc2)NC(=O)[C@H](CCC(N)=O)NC(=O)[C@H]([C@@H](C)O)NC(=O)[C@@H]2CCCN2C(=O)[C@@H]2CCCN2C1=O` [[^68Ga]Ga-DOTA-FD3, metal not drawn], for which the tissue uptake at 4 h worked out at 9.97 ± 0.42 %ID/g in data set [3], 7.07 ± 0.45 %ID/g in data set [4] and 7.03 ± 1 %ID/g in data set [5].
